Tests used:
PLK1 [1] = biological target: T1, PLK1 (Homo sapiens, UniProt P53350); test: Cellular PLK1 assay in K562 cells overexpressing CDC25C; assay type: cell-based; design: endogenous in cells; host or cells: K562 (human chronic myelogenous leukemia) overexpressing CDC25C, nocodazole-arrested; conditions: nocodazole arrested, cdc25c p-Ser198 readout
Experimental: (§1) Inhibition of PLK1 was measured by quantifying phosphorylation of PLK1 substrates using chemiluminescent and fluorogenic probes. The protocols for these assays are provided below.
1. Culturing of K562 Cells
Human chronic myelogenous leukemia K562 cells (American Tissue Culture Collection) overexpressing CDC25C, were grown in Growth Medium having the following composition: Iscove Dulbecco's Modified Eagle's Medium (“Iscove DMEM”, Mediatech/Cellgro, Cat. #10-013-CV), 10% Fetal Bovine Serum (“FBS”, SAFC Biosciences, Cat. #12106-500M), and 1% penicillin/streptomycin (“pen-strep”, Mediatech/Cellgro, Cat. #30-002-CI). The cells were plated in 96 well round bottom tissue culture plates (Fisher, Costar* Cell Culture plates, Cat. #07-200-95) at 100,000 cells per 50 μL of Growth Medium per well. Nocodazole (Sigma, Cat. # M1404) was added to the growth media to arrest the cells in the G2 or M phase, at 333 nM concentration. The cells were incubated with nocodazole for 18 hours at 37° C. prior to addition of tested compounds.
2. Treatment of Cells with the Tested Compounds
Solutions of tested compounds in DMSO at different concentrations were prepared using serial dilutions. Each compound was tested at 8 concentration points, 10 μM, 3.3 μM, 1.11 μM, 0.37 μM, 0.12 μM, 0.04 μM, 0.014 μM, 0.005 μM, duplicate replicates.
Two controls were performed: “DMSO alone” control in which nocodazole and DMSO were present but no compounds were added, and “nocodazole alone” control, in which only nocodazole was present, but neither DMSO nor compounds were added.
The solutions of compounds were prepared by diluting 10 mM compound 1:1 in DMSO (5 μL 10 mM compound and 5 μL DMSO), followed by 1:3 serial dilutions of compound in DMSO performed by diluting 3 μL of higher concentration compound solution serially into 6 μL DMSO to give 3-fold dilutions. Next, 3 μL of each compound solution at each concentration was transferred to 750 μL of Growth Medium. In “DMSO alone” control 3 μL of DMSO alone was added to 750 μL of Growth Medium.
After the diluted compounds were mixed well in the Growth Medium, 50 μL of each compound solution in DMSO/Growth Medium was transferred to each well of the 96-plate containing cells in 50 μL of Growth Medium/Nocodazole.
The cells and compounds were incubated for 120 minutes at 37° C., in an atmosphere containing 5% CO2.
3. Fixation and Permeabilization of the Cells
After the cells were incubated with compounds, the cells were spun down at 1,000 rpm for 5 minutes at 4° C. and supernatants were removed by flicking the plates. Cells were then washed with 200 μl of ice cold PBS, spun down again and supernatants removed. Cells were then fixed and permeabilized by addition of 100 μL/well of Fixation and Permeabilization Solution (1× buffer provided in BD Biosciences Cytofix/Cytoperm™ Fixation/Permeabilization kit, Cat. #554714) and incubation for 20 minutes at room temperature. The fixative was then removed by centrifugation (5 minutes at 2,000 rpm), and plates were flicked to remove the fixative and washed twice, each time with 200 μL/well BD Perm/Wash buffer (10× concentrate provided in BD Biosciences Cytofix/Cytoperm™ Fixation/Permeabilization kit, Cat. #554714, 1× buffer prepared by dilution in distilled H2O).
Cells were spun down at 1,000 rpm for 5 minutes at 4° C. Supernatants were removed by flicking the plates. A solution of a primary antibody specific for cdc25cp-Ser198 was prepared by diluting Rabbit cdc25c (Ser198) antibody (Cell Signaling, #9529L) 1:50 in a Fluorescence Activated Cell Sorting (“FACS”) Buffer (2% FBS in PBS). The cell pellets were resuspended in 50 μL of the primary antibody solution. 50 μL of FACS buffer was added to unstained controls. Staining was allowed to proceed overnight at room temperature.
The plates were then washed by addition of 200 μL of FACS Buffer to each well, were centrifuged and the supernatant was removed. […]

PLK1 [2] = biological target: T1, PLK1; test: In vitro PLK1 ELISA assay (biochemical); design: purchased Cell Signalling 7728
Experimental: as §1
In Vitro PLK1 ELISA Assay
1. Preparation of Assay Plates.
Costar 96-well black or white solid flat high binding plates (Fisher Scientific, Catalog No. 07-200-591) were coated with Neutravidin (Pierce, Catalog No. 31000) using the following protocol. A 0.01 mg/mL solution of Neutravidin in 1× Phosphate Buffered Saline (“PBS”, Cellgro/Mediatech, Catalog No. 21-040-CV) was added to each well (100 μL/well) and was incubated for 18-24 hours at 4° C. The plates were then washed with 1× Phosphate Buffer Saline—Tween (“PBST”, Calbiochem, Catalog No. 524653) buffer using a plate washer. The plates were treated with bovine serum albumin (“BSA”, Sigma, Catalog No. A7906) to block non-specific binding sites, by adding a 2% BSA solution in 1×PBST buffer to each well (100 μL/well) and incubating the plates for 1 hour at room temperature. The plates were then washed with 1×PBST buffer using a plate washer.
2. PLK1-Catalyzed Phosphorylation Reaction
An aqueous buffer solution A having the following composition was prepared:
20 mM HEPES (Cellgro/Mediatech, Catalog No. 25-060Ci), pH 7.2;
5 mM MgCl2 (Sigma, Catalog No. M2393);
2 mM MnCl2.4H2O (EM Biosciences, Catalog No. MX0185-2);
1 mM Dithiothreitol (“DTT”, Fluka, Catalog No. B4184).
Next, the substrate solution B was prepared by adding 2.6 μL of 10 mM ATP (Sigma, Catalog No. A7699) and 6.4 μL of the 1 mM PLK1 substrate, CHK2-derived peptide Biotin-SSLETVSTQELYSIP (custom synthesized at Anaspec) SEQ ID: No. 1, to 4691 μL of the buffer solution A. The concentration of the ATP in solution B is 5.44 μM (1.36×); the concentration of the PLK1 substrate in solution B is 1.36 μM (1.36×).
Compound solutions C of varying concentrations for each compound were prepared by dissolving each compound in dimethylsulfoxide (DMSO, Sigma, Catalog No. D2650) to varying concentrations, followed by adding 2 μL of each solution to 38 μL of the buffer solution A, thereby forming 10× compound solutions in 5% DMSO.
A PLK1 solution D was prepared by adding 8.4 μL of 100 μg/mL PLK1 (Cell Signalling, Catalog No. 7728) to 1392 μL of the buffer solution A, thereby forming 0.6 μg/mL (6×) PLK1 solution.
The aqueous 1.36× substrate solution B was added to each well (44 μL/well) resulting in binding of the substrate to the plate via biotin/neutravidin interaction. Then 10× compound solutions C for each tested compound at each tested concentration were added to each well (6 μL/well). Next, 6×PLK1 solution D was added to each well (10 μL/well).
The final concentrations of tested compounds in each well were 10 μM, 3.3 μM, 1.1 μM, 0.36 μM, 0.12 μM, 0.04 μM, 0.014 μM, and 0.005 μM.
The obtained reaction mixtures were incubated in the wells for 45 minutes at room temperature, allowing PLK1-catalyzed phosphorylation of the substrate to proceed. The plates were then washed with 1×PBST solution using a plate washer, such that the bound phosphorylated or unphosphorylated substrate remains attached to the wells upon washing.
The washed plates were developed by treating the plates with a primary antibody that is specific for the phosphorylated substrate, followed by treatment with a secondary antibody that is specific for the primary antibody, and that is capable of catalyzing a reaction that results in a chemiluminescent readout. The chemiluminescent readout was used to quantify the substrate phosphorylation, and, consequently, to determine IC50 values for PLK1 inhibition, and was measured using a luminometer (Perkin Elmer/Wallac plate reader). The plate development protocol is described below.
A mixed antibody solution E was prepared by adding 1 μL of the primary antibody, rabbit p-CHK2(T68) (Rockland, Catalog No. 401280), and 1 μL of the secondary antibody, HRP-goat anti-rabbit IgG (Jackson Immunoresearch Catalog No. 111-035-003) to 10000 μL of 0.1% BSA in 1×PBST buffer. […]

[3] = ELISA, CHK2-derived peptide substrate, read-out: PLK1 IC50 (μM) biochemical assay
[4] = read-out: IC50 in biochemical in vitro PLK1 ELISA assay (less than 10 μM)

T1 sequence (P53350 whole entry): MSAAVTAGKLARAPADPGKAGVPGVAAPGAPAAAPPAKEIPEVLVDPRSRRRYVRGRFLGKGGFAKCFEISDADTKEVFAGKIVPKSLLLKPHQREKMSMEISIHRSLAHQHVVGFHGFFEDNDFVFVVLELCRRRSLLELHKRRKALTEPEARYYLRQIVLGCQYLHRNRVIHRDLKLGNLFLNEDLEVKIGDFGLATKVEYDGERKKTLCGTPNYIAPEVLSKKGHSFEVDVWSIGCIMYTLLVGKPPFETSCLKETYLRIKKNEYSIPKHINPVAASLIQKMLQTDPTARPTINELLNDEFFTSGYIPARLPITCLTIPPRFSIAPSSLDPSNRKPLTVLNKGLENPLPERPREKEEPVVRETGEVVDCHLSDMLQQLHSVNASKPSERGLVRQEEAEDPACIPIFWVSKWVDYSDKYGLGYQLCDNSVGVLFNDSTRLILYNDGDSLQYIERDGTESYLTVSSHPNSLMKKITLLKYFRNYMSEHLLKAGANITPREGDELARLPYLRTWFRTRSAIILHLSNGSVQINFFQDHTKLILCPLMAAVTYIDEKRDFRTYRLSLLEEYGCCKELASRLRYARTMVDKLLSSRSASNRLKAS

SMILES | IC50 (PLK1 [1]) | IC50 (PLK1 [2]; [3]) | IC50 (PLK1 [2]; [4]) | IC50 (PLK1 [2]; read-out: IC50 in biochemical ELISA assay (less than 0.01 μM))
CN1CCN(c2cccc(Nc3ncc(F)c(Nc4ccc5c(n4)N(C4CCCC4)C(=O)CO5)n3)c2)CC1 [compound 131, 4-cyclopentyl-6-(5-fluoro-2-(3-(4-methylpiperazin-1-yl)phenylamino)pyrimidin-4-ylamino)-2H-pyrido[3,2-b][1,4]oxazin-3(4H)-one] | ≥ 10 µM | 0.5 to 5 µM | < 10 µM | 
CN1CCN(c2ccc(Nc3ncc(F)c(Nc4ccc5c(n4)NCCO5)n3)cc2)CC1 [compound 166, N4-(3,4-dihydro-2H-pyrido[3,2-b][1,4]oxazin-6-yl)-5-fluoro-N2-(4-(4-methylpiperazin-1-yl)phenyl)pyrimidine-2,4-diamine] | ≥ 10 µM |  |  | 
CCC(CC)N1C(=O)COc2ccc(Nc3nc(Nc4cccc(N5CCN(C)CC5)c4)ncc3F)nc21 [compound 134, 6-(5-fluoro-2-(3-(4-methylpiperazin-1-yl)phenylamino)pyrimidin-4-ylamino)-4-(pentan-3-yl)-2H-pyrido[3,2-b][1,4]oxazin-3(4H)-one] | < 0.5 µM | < 0.5 µM | < 10 µM | < 0.01 µM
CCN1CCN(c2ccc(Nc3ncc(C)c(Nc4ccc5c(n4)N(C)C(=O)CO5)n3)cc2)CC1 [compound 91, 6-(2-(4-(4-ethylpiperazin-1-yl)phenylamino)-5-methylpyrimidin-4-ylamino)-4-methyl-2H-pyrido[3,2-b][1,4]oxazin-3(4H)-one] | ≥ 10 µM |  |  | 
CCOC(=O)N1CCN(c2ccc(Nc3ncc(F)c(Nc4ccc5c(n4)NCCO5)n3)cc2)CC1 [compound 163, ethyl 4-(4-(4-(3,4-dihydro-2H-pyrido[3,2-b][1,4]oxazin-6-ylamino)-5-fluoropyrimidin-2-ylamino)phenyl)piperazine-1-carboxylate] | ≥ 10 µM |  |  | 
Cc1cc(Nc2ncc(C)c(Nc3ccc4c(n3)N(C)C(=O)C(C)(C)O4)n2)ccc1N1CCN(C)CC1 [compound 98, 2,2,4-trimethyl-6-(5-methyl-2-(3-methyl-4-(4-methylpiperazin-1-yl)phenylamino)pyrimidin-4-ylamino)-2H-pyrido[3,2-b][1,4]oxazin-3(4H)-one] | ≥ 10 µM |  |  | 
Cc1cnc(Nc2ccc(N3CCN(C)CC3)nc2)nc1Nc1ccc2c(c1)N(C)C(=O)C(C)(C)O2 [compound 202, 2,2,4-trimethyl-6-(5-methyl-2-(6-(4-methylpiperazin-1-yl)pyridin-3-ylamino)pyrimidin-4-ylamino)-2H-benzo[b][1,4]oxazin-3(4H)-one] | ≥ 10 µM |  |  | 
CCN1CCN(c2ccc(Nc3ncc(C)c(Nc4ccc5c(n4)NC(=O)C(C)(C)O5)n3)cc2)CC1 [compound 92, 6-(2-(4-(4-ethylpiperazin-1-yl)phenylamino)-5-methylpyrimidin-4-ylamino)-2,2-dimethyl-2H-pyrido[3,2-b][1,4]oxazin-3(4H)-one] | ≥ 10 µM |  |  | 
CCN1CCN(c2ccc(Nc3ncc(C)c(Nc4ccc5c(n4)N(C)C(=O)C(C)(C)O5)n3)cc2)CC1 [compound 94, 6-(2-(4-(4-ethylpiperazin-1-yl)phenylamino)-5-methylpyrimidin-4-ylamino)-2,2,4-trimethyl-2H-pyrido[3,2-b][1,4]oxazin-3(4H)-one] | ≥ 10 µM |  |  | 
CCOC(=O)N1CCN(c2cccc(Nc3ncc(F)c(Nc4ccc5c(n4)NCCO5)n3)c2)CC1 [compound 165, ethyl 4-(3-(4-(3,4-dihydro-2H-pyrido[3,2-b][1,4]oxazin-6-ylamino)-5-fluoropyrimidin-2-ylamino)phenyl)piperazine-1-carboxylate] | ≥ 10 µM |  |  | 
Cc1cnc(Nc2ccc(N3CCN(C)CC3)cc2)nc1Nc1ccc2c(n1)NC(=O)C(C)(C)O2 [compound 88, 2,2-dimethyl-6-(5-methyl-2-(4-(4-methylpiperazin-1-yl)phenylamino)pyrimidin-4-ylamino)-2H-pyrido[3,2-b][1,4]oxazin-3(4H)-one] | ≥ 10 µM |  |  | 
CC(=O)N1CCN(c2cccc(Nc3ncc(F)c(Nc4ccc5c(n4)NCCO5)n3)c2)CC1 [compound 164, 1-(4-(3-(4-(3,4-dihydro-2H-pyrido[3,2-b][1,4]oxazin-6-ylamino)-5-fluoropyrimidin-2-ylamino)phenyl)piperazin-1-yl)ethanone] | ≥ 10 µM |  |  | 

— patent publication US9040527B2, “Pyrimidinediamine kinase inhibitors” (Rigel Pharmaceuticals, Inc., priority 2008, dated 2015)
